In this experiment the target is T1, TS isolated from human ovarian CH1 cells (CH1 TS) (Homo sapiens, UniProt P04818).
T1 construct: gene TYMS; native enzyme partially purified from CH1 ovarian tumour cells (parental line), no tag
Briefly: 3H release from [[…]-3H]dUMP, non-linear regression. The class given is biochemical.

In article PMC2033796, “Mechanisms of acquired resistance to the quinazoline thymidylate synthase inhibitor ZD1694 (Tomudex) in one mouse and three human cell lines” (British Journal of Cancer, 1995) one finds Ki data, which are given here for 1 compound.

Each structure is given as a SMILES string.

T1 sequence (P04818 2-313): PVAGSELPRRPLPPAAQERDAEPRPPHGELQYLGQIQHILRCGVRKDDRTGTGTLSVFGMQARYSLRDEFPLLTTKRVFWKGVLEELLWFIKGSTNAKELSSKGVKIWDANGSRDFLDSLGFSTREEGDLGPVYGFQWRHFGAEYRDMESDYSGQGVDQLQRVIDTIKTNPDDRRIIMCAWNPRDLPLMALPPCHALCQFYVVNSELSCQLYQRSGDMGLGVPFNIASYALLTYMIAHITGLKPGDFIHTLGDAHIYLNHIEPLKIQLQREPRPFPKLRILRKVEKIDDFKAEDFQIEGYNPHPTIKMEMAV

Usually Ki stands for a dissociation constant, usually derived from enzyme kinetics or from competition with a known ligand. `Cc1nc2ccc(CN(C)c3ccc(C(=O)N[C@@H](CCC(=O)N[C@@H](CCC(=O)N[C@@H](CCC(=O)O)C(=O)O)C(=O)O)C(=O)O)s3)cc2c(=O)[nH]1` [ZD1694 triglutamate] registered a Ki of 1.6 ± 0.1 nM.
